≈ marks a conversion by molar mass, not a printed value. Non-standard residues stand in square brackets, D forms with d. Residues, ends and D or L forms follow the SMILES beside them. No end group written: not given here. Nle = CCCC[C@H](N)C(=O)O
Tests used:
Type in all cases: cell-based
[1] = test system: Staphylococcus aureus (ATCC 29213); experiment: Minimum bactericidal concentration (MBC) assay; parameters: MBC Staphylococcus aureus: unit: µg/mL; conditions: Tables 11-21, no unit printed
Procedure: (§1) First, each of Pseudomonas aeruginosa (ATCC 27853) and Staphylococcus aureus (ATCC 29213) was cultured in 3% (w/v) TSB (tryptic soy broth) liquid medium at 37° C. and 200 rpm for 4 hours, and then further cultured under the same conditions for 3 hours to a concentration of 5×10^6 CFU/ml. Strain solutions were prepared by diluting each of the further cultured strains with SP (sodium phosphate; 10 mM sodium phosphate, 1% TSB) buffer to a final concentration of 2×10^5 CFU/ml.
(§2) Then, each peptide at varying concentrations (0 μg/ml to 300 μg/ml) was dispensed into each well of a 96-well microplate, and 100 μl (1×10^5 CFU/ml) of each of the prepared strain solutions was added thereto, mixed therewith, and allowed to react with the peptide in an incubator at 37° C. for 1 hour.
(§3) In addition, 30 g/L of TS (tryptic soy) and 15 g/L of agar were dissolved in distilled water and sterilized, and then 25 ml of the solution was poured onto a 100 mm round plate and solidified at room temperature for one day or more, thereby preparing a TS agar plate. 10 μl of each reaction solution of the peptide and the strain was plated on the TS agar plate at a constant size, and incubated in an incubator at 37° C. for 18 hours, and then colony formation on the plate was checked. The minimum bactericidal concentration was defined as the minimum concentration of the peptide at which no colony was formed, and the experimental results are shown in Table 1 below.

[2] = test system: Pseudomonas aeruginosa (ATCC 27853); experiment: Minimum bactericidal concentration (MBC) assay; parameters: MBC Pseudomonas aeruginosa: unit: µg/mL; conditions: Tables 11-21, no unit printed
Procedure: as §1, §2, §3

[3] = test system: Methicillin-resistant Staphylococcus aureus (MRSA, ATCC 33591); experiment: Minimum bactericidal concentration (MBC) assay; parameters: unit: µg/mL; conditions: Tables 11-21, no unit printed
Procedure: as §1, with “2×10^5 CFU/ml. […]” for “2×10^5 CFU/ml.”
as §3, with “checked.” for “checked. The minimum bactericidal concentration was defined as the minimum concentration of the peptide at which no colony was formed, and the experimental results are shown in Table 1 below.”
Specifically, each type of bacteria was cultured in 3% (w/v) TSB (tryptic soy broth) liquid medium at 37° C. and 200 rpm for 4 hours, and then further cultured under the same conditions for 3 hours to a concentration of 5×10^6 CFU/ml. Strain solutions were prepared by diluting each of the further cultured strains with SP buffer to a final concentration of 2×10^5 CFU/ml.
as §2, with “Then, the KU-5878” for “Then, each”
In addition, 10 μl of each reaction solution of the peptide and the strain was plated on the TS agar plate at a constant size, and incubated in an incubator at 37° C. for 18 hours, and then colony formation on the plate was checked.

CRPA = experiment: Minimum bactericidal concentration (MBC) assay; parameters: unit: µg/mL; conditions: Tables 11-21, no unit printed
[4] = test system: Pseudomonas aeruginosa, Staphylococcus aureus, CRPA, MRSA; experiment: Increase in antibacterial activity (MBC) compared with KU-5878; conditions: mark = antibacterial activity increased compared with KU-5878

Molecule | MBC Staphylococcus aureus [1] | MBC Pseudomonas aeruginosa [2] | MBC MRSA [3] | MBC CRPA (CRPA) | Increase in activity [4]
CCCC[C@H](NC(=O)CNC(=O)[C@@H](NC(=O)[C@H](C)NC(=O)[C@H](CCCC)NC(=O)[C@H](Cc1ccccc1)NC(=O)[C@@H](NC(=O)CNC(=O)[C@H](Cc1ccccc1)NC(=O)[C@@H](NC(=O)CNC(=O)CNC(=O)[C@H](CO)NC(=O)[C@H](CCC(N)=O)NC(=O)[C@H](CCCC)NC(=O)[C@H](CCCC)NC(=O)[C@@H](NC(=O)[C@@H](N)CCCCN)[C@@H](C)O)[C@@H](C)O)[C@@H](C)O)[C@@H](C)CC)C(=O)NCC(=O)N[C@H](C(=O)N[C@@H](CCCNC(=N)N)C(=O)O)[C@@H](C)CC [KU-5878-4Nle] (H-KT[Nle][Nle]QSGGTFGTF[Nle]AIG[Nle]GIR-OH; N-terminus and C-terminus assumed) | 90 µg/mL (≈ 41.8 µM) | 110 µg/mL (≈ 51.1 µM) | 100 µg/mL (≈ 46.5 µM) | 100 µg/mL (≈ 46.5 µM) | antibacterial activity of the peptide was improved
-K-MKKGGKFGTFMAIG-GIR [d 58K 60M 75M] | 6 µg/mL | 6 µg/mL | 8 µg/mL | 8 µg/mL | ◯
-KMM-KGGKF-TFM-IG-GIR [d 58K 62K 68G 72A 75M] | 15 µg/mL | 16 µg/mL | 18 µg/mL | 15 µg/mL | ◯
-KMMKK-GKFG-F--IGMGIR [d 58K 64G 69T 71M 72A] | 2 µg/mL | 2 µg/mL | 3 µg/mL | 3 µg/mL | ◯
-KMMKKGGKFGTF-AIG-GIR [d 58K 71M 75M] | 3 µg/mL | 4 µg/mL | 4 µg/mL | 2 µg/mL | ◯
-KMMKKGGKFGTF-AIGMGIR [Peptide K4-d58K-d71M] | 8 µg/mL | 10 µg/mL | 10 µg/mL | 10 µg/mL | ◯
-KMMKKGGKFGTFMAIGMGIR [5878-K4-d58K(=d59K)] | 6 µg/mL | 2 µg/mL | 2 µg/mL | 6 µg/mL | ◯
KK---KGGKFGTF-AIG-GIR [d 60M 61M 62K 71M 75M] | 80 µg/mL | 80 µg/mL | 80 µg/mL | 80 µg/mL | ◯
KK-M-KGGKF-TFM-IG-GIR [d 60M 62K 68G 72A 75M] | 4 µg/mL | 4 µg/mL | 5 µg/mL | 4 µg/mL | ◯
KK-MKKGGKFGTF--IGMGIR [d 60M 71M 72A] | 8 µg/mL | 8 µg/mL | 10 µg/mL | 8 µg/mL | ◯
KK-MKKGGKFGTF-AIG-GIR [d 60M 71M 75M] | 2 µg/mL | 2 µg/mL | 2 µg/mL | 3 µg/mL | ◯
KK-MKKGGKFGTF-AIGMGIR [Peptide K4-d60M-d71M] | 10 µg/mL | 10 µg/mL | 12 µg/mL | 10 µg/mL | ◯
KK-MKKGGKFGTFMAIGMGIR [5878-K4-d60M(=d61M)] | 3 µg/mL | 2 µg/mL | 2 µg/mL | 4 µg/mL | ◯
KKIIKKGGKFGTFIAIGIGIR [Peptide K4-4MI] | 2 | 3 | 3 | 3 | ◯
KKMM-K-GKF-TFM-IG-GIR [d 62K 64G 68G 72A 75M] | 4 µg/mL | 4 µg/mL | 4 µg/mL | 4 µg/mL | ◯
KKMM-KGGKF--FM-IG-GIR [d 62K 68G 69T 72A 75M] | 8 µg/mL | 8 µg/mL | 10 µg/mL | 8 µg/mL | ◯
KKMM-KGGKF-TF--IG-GIR [d 62K 68G 71M 72A 75M] | 20 µg/mL | 20 µg/mL | 25 µg/mL | 20 µg/mL | ◯
KTMMQSGGTFGTFMAIGMGAR [KU-5878-I77A] | > 300 µg/mL | > 300 µg/mL | > 300 µg/mL | > 300 µg/mL | 

Molecule | MBC Staphylococcus aureus [1] | MBC Pseudomonas aeruginosa [2] | MBC MRSA [3] | MBC CRPA (CRPA) | Increase in activity [4]
KTMMQSGGTFGTFMAIGMGGR [KU-5878-I77G] | 90 µg/mL | 80 µg/mL | 90 µg/mL | 100 µg/mL | 
KTMMQSGGTFGTFMAIGMGI [KU-5877] | 300 µg/mL | 300 µg/mL | > 300 µg/mL | > 300 µg/mL | 
KTMMQSGGTFGTFMAIGMGIA [KU-5878-R78A] | > 300 µg/mL | > 300 µg/mL | > 300 µg/mL | > 300 µg/mL | 
KTMMQSGGTFGTFMAIGMGIK [KU-5878-R78K] | > 300 µg/mL | > 300 µg/mL | > 300 µg/mL | > 300 µg/mL | 
KTMMQSGGTFGTFMAIGMGIRQ [Peptide 5878-Q] | 180 µg/mL | 150 µg/mL | 180 µg/mL | 180 µg/mL | 
KTMMQSGGTFGTFMAIGMGKR [KU-5878-I77K] | > 300 µg/mL | > 300 µg/mL | > 300 µg/mL | > 300 µg/mL | 
KTMMQSGGTFGTFMAIGMGTR [KU-5878-I77T] | > 300 µg/mL | > 300 µg/mL | > 300 µg/mL | > 300 µg/mL | 
KTMMQSGGTFGTFMAKGMGIR [KU-5878-I73K] | > 300 µg/mL | > 300 µg/mL | > 300 µg/mL | > 300 µg/mL | 
KTMMQSGGTFGTFMAWGMGIR [KU-5878-I73W] | 300 µg/mL | 300 µg/mL | > 300 µg/mL | 300 µg/mL | 
KTMMQSGGTFGTFMGIGMGIR [KU-5878-A72G] | > 300 µg/mL | > 300 µg/mL | > 300 µg/mL | > 300 µg/mL | 
KTMMQSGGTFGTKMAIGMGIR [KU-5878-F70K] | > 300 µg/mL | > 300 µg/mL | > 300 µg/mL | > 300 µg/mL | 
KTMMQSGGTFGTWMAIGMGIR [KU-5878-F70W] | 300 µg/mL | 300 µg/mL | > 300 µg/mL | 300 µg/mL | 
KTMMQSGGTWGTFMAIGMGIR [KU-5878-F67W] | 80 µg/mL | 80 µg/mL | 90 µg/mL | 80 µg/mL | 
KTMMQTGGTFGTFMAIGMGIR [KU-5878-S63T] | > 300 µg/mL | > 300 µg/mL | > 300 µg/mL | > 300 µg/mL | 
KTMMRSGGTFGTFMAIGMGIR [KU-5878-Q62R] | 80 µg/mL | 80 µg/mL | 90 µg/mL | 80 µg/mL | 
KTMMSSGGTFGTFMAIGMGIR [KU-5878-Q62S] | > 300 µg/mL | > 300 µg/mL | > 300 µg/mL | > 300 µg/mL | 
RTMMQSGGTFGTFMAIGMGIR [KU-5878-K58R] | 120 µg/mL | 120 µg/mL | 120 µg/mL | 120 µg/mL | 
